In patent publication US4193997A, “Thieno[2,3-c] and [3,2-c]pyridines, process for their preparation and therapeutic applications thereof” (Parcor, priority 1977, dated 1980):

Columns and labels:
[1] = tested on: collagen-induced blood-platelet aggregation; test: Collagen-induced blood-platelet aggregation after oral treatment of rats; format: in vivo, Wistar rats; conditions: Rattus norvegicus, 100 mg/kg oral, 3 hrs after treatment, collagen (bovine tendon extract), read-out: Percent inhibition of blood-platelet aggregation, Collagen
Description: (§1) Blood is taken from the jugular vein of Wistar rats. From this citrated blood, and after centrifugation, a plasma containing 600,000±20,000 blood-platelets per mm 3 is reconstituted, which plasma is used in all aggregation determinations.
(§2) 0.4 ml plasma is placed in a siliconized tube provided with a magnet bar which is also siliconized. The tube is introduced into an aggregometer connected to an apparatus which records the optical density variations. When light transmission reaches a stable value, 0.5 ml of a solution containing 10 μM A.D.P. (adenosine diphosphate) is introduced into the tube.
The A.D.P. solution is substituted with a collagen solution (bovine tendon extract).
(§3) Different groups of 20 rats each are used. Each group is orally administered a test derivative, at a dosage of 100 mg/kg. The results obtained during both tests are reported in following Table I which indicates the percent inhibition of blood-platelet aggregation obtained with respect to the reference group, 3 hrs after treatment.

[2] = tested on: Red blood cells; test: Anti-sludge in vitro, "preventive" treatment (protamine sulfate agglomeration of red blood cells); format: cell-based, rats; conditions: for percent agglomerates formed by 5 RBC: controls 6 or 8; for percent agglomerates formed by 4 RBC: controls 9 or 8; for percent agglomerates formed by 3 RBC: controls 13 or 14; for percent agglomerates formed by 2 RBC: controls 17 or 16; for percent free red blood cells (size 1): controls 32 (n°3, 4, 6) or 30 (n°11, 12, 17)
Description: (§4) Red blood cells of rats are washed three times and diluted to 1/250 concentration in physiological saline. In each of 5 tubes are placed 0.6 ml of this suspension and 0.2 ml physiological saline. Into each tube is then added, respectively, an amount of 0, 25, 50, 100 and 200 μg of the test derivative contained in 0.2 ml of solution. After incubation for one hour at 37° C., 0.2 ml of a solution containing 125 μg/ml protamine sulfate is added thereto, and the resulting material is further incubated for 0.5 hour at 37° C. The red blood cells of each tube are then examined with a Mallasez cell, and the percent free red blood cells (RBC) and the percent agglomerates formed by 2, 3, 4, 5 . . . RBC are noted.

[3] = tested on: A.D.P.-induced blood-platelet aggregation; test: A.D.P.-induced blood-platelet aggregation after oral treatment of rats; format: in vivo, Wistar rats; conditions: Rattus norvegicus, 100 mg/kg oral, 3 hrs after treatment, 10 μM A.D.P. solution, read-out: Percent inhibition of blood-platelet aggregation, A.D.P.
Description: as §1, §2
Blood-platelet aggregation then induces an increase of light transmission, followed by a decrease subsequent to the disaggregation stage.
The maximal optical density variation thus determined characterizes the extent of the aggregation.
as §3

[4] = tested on: Red blood cells; test: Anti-sludge in vitro, "curative" procedure (protamine sulfate agglomeration of red blood cells); format: cell-based, rats; conditions: 25 μg; for percent aggregates, size of agglomerates 4: reference tests 11; for percent aggregates, size of agglomerates 3: reference tests 15 or 16; for percent aggregates, size of agglomerates 2: reference tests 19; for percent aggregates, size of agglomerates 1: reference tests 33 (n°3, 4, 6) or 30 (n°11, 12, 17)
Description: as §4
The test was repeated according to a "curative" procedure. The red blood cells were first contacted with the protamine sulfate and, after incubation for 0.5 hour, 0.2 ml containing 25 μg of the test derivative were added thereto, after which the material was further incubated for one hour at 37° C.

O=C1c2ccsc2CCN1Cc1ccc(Cl)cc1 [Derivative n°3, 4-Oxo-5-p.chlorobenzyl-4,5,6,7-tetrahydro-thieno[3,2-c]pyridine]
inhibition at 100 mg/kg [1]: 91.4% | percent agglomerates formed by 5 RBC ([2]; 25 μg per tube): 1% | percent agglomerates formed by 4 RBC ([2]; 25 μg per tube): 2% | percent agglomerates formed by 3 RBC ([2]; 25 μg per tube): 10% | percent agglomerates formed by 2 RBC ([2]; 25 μg per tube): 24% | percent free red blood cells (size 1) ([2]; 25 μg per tube): 63% | percent agglomerates formed by 4 RBC ([2]; 50 μg per tube): 2% | percent agglomerates formed by 3 RBC ([2]; 50 μg per tube): 7% | percent agglomerates formed by 2 RBC ([2]; 50 μg per tube): 25% | percent free red blood cells (size 1) ([2]; 50 μg per tube): 66% | percent agglomerates formed by 5 RBC ([2]; 100 μg per tube): 1% | percent agglomerates formed by 4 RBC ([2]; 100 μg per tube): 1% | percent agglomerates formed by 3 RBC ([2]; 100 μg per tube): 6% | percent agglomerates formed by 2 RBC ([2]; 100 μg per tube): 15% | percent free red blood cells (size 1) ([2]; 100 μg per tube): 77% | percent agglomerates formed by 4 RBC ([2]; 200 μg per tube): 1% | percent agglomerates formed by 3 RBC ([2]; 200 μg per tube): 1% | percent agglomerates formed by 2 RBC ([2]; 200 μg per tube): 10% | percent free red blood cells (size 1) ([2]; 200 μg per tube): 88% | inhibition at 100 mg/kg [3]: 60.8% | percent aggregates, size of agglomerates 4 [4]: 1% | percent aggregates, size of agglomerates 3 [4]: 5% | percent aggregates, size of agglomerates 2 [4]: 13% | percent aggregates, size of agglomerates 1 [4]: 81%

O=C1c2sccc2CCN1Cc1ccccc1Cl [Derivative n°4, 6-o.Chlorobenzyl-7-oxo-4,5,6,7-tetrahydro-thieno[2,3-c]-pyridine]
inhibition at 100 mg/kg [1]: 93.1% | percent agglomerates formed by 5 RBC ([2]; 25 μg per tube): 2% | percent agglomerates formed by 4 RBC ([2]; 25 μg per tube): 3% | percent agglomerates formed by 3 RBC ([2]; 25 μg per tube): 7% | percent agglomerates formed by 2 RBC ([2]; 25 μg per tube): 20% | percent free red blood cells (size 1) ([2]; 25 μg per tube): 68% | percent agglomerates formed by 5 RBC ([2]; 50 μg per tube): 1% | percent agglomerates formed by 4 RBC ([2]; 50 μg per tube): 2% | percent agglomerates formed by 3 RBC ([2]; 50 μg per tube): 4% | percent agglomerates formed by 2 RBC ([2]; 50 μg per tube): 22% | percent free red blood cells (size 1) ([2]; 50 μg per tube): 71% | percent agglomerates formed by 4 RBC ([2]; 100 μg per tube): 2% | percent agglomerates formed by 3 RBC ([2]; 100 μg per tube): 1% | percent agglomerates formed by 2 RBC ([2]; 100 μg per tube): 17% | percent free red blood cells (size 1) ([2]; 100 μg per tube): 80% | percent agglomerates formed by 3 RBC ([2]; 200 μg per tube): 1% | percent agglomerates formed by 2 RBC ([2]; 200 μg per tube): 8% | percent free red blood cells (size 1) ([2]; 200 μg per tube): 91% | inhibition at 100 mg/kg [3]: 62.9% | percent aggregates, size of agglomerates 5 ([4]; reference tests 8 or 9): 1% | percent aggregates, size of agglomerates 4 [4]: 1% | percent aggregates, size of agglomerates 3 [4]: 3% | percent aggregates, size of agglomerates 2 [4]: 17% | percent aggregates, size of agglomerates 1 [4]: 78%

O=C(O)C1Cc2sccc2C(=O)N1Cc1ccccc1 (stereo not shown) [Derivative n°14, 4-Oxo-6-carboxy-5-benzyl-4,5,6,7-tetrahydro-thieno[3,2-c]-pyridine]
inhibition at 100 mg/kg [1]: 93% | inhibition at 100 mg/kg [3]: 60.5%

O=C1c2ccsc2CCN1Cc1ccccc1Cl [Derivative n°1, 4-Oxo-5-o.chlorobenzyl-4,5,6,7-tetrahydro-thieno[3,2-c]pyridine]
inhibition at 100 mg/kg [1]: 90% | inhibition at 100 mg/kg [3]: 60.4%

O=C(c1ccccc1Cl)N1CCc2sccc2C1=O [Derivative n°6, 4-Oxo-5-o.chlorobenzoyl-4,5,6,7-tetrahydro-thieno[3,2-c]pyridine]
inhibition at 100 mg/kg [1]: 91.5% | percent agglomerates formed by 5 RBC ([2]; 25 μg per tube): 4% | percent agglomerates formed by 4 RBC ([2]; 25 μg per tube): 5% | percent agglomerates formed by 3 RBC ([2]; 25 μg per tube): 4% | percent agglomerates formed by 2 RBC ([2]; 25 μg per tube): 22% | percent free red blood cells (size 1) ([2]; 25 μg per tube): 65% | percent agglomerates formed by 5 RBC ([2]; 50 μg per tube): 1% | percent agglomerates formed by 4 RBC ([2]; 50 μg per tube): 3% | percent agglomerates formed by 3 RBC ([2]; 50 μg per tube): 5% | percent agglomerates formed by 2 RBC ([2]; 50 μg per tube): 25% | percent free red blood cells (size 1) ([2]; 50 μg per tube): 66% | percent agglomerates formed by 5 RBC ([2]; 100 μg per tube): 1% | percent agglomerates formed by 4 RBC ([2]; 100 μg per tube): 0% | percent agglomerates formed by 3 RBC ([2]; 100 μg per tube): 3% | percent agglomerates formed by 2 RBC ([2]; 100 μg per tube): 13% | percent free red blood cells (size 1) ([2]; 100 μg per tube): 83% | percent agglomerates formed by 3 RBC ([2]; 200 μg per tube): 1% | percent agglomerates formed by 2 RBC ([2]; 200 μg per tube): 8% | percent free red blood cells (size 1) ([2]; 200 μg per tube): 91% | inhibition at 100 mg/kg [3]: 61.7% | percent aggregates, size of agglomerates 4 [4]: 2% | percent aggregates, size of agglomerates 3 [4]: 2% | percent aggregates, size of agglomerates 2 [4]: 15% | percent aggregates, size of agglomerates 1 [4]: 81%

COC(=O)c1ccccc1CN1CCc2sccc2C1=O [Derivative n°9, 4-Oxo-5-o,carbomethoxybenzyl-4,5,6,7-tetrahydro-thieno[3,2-c]-pyridine]
inhibition at 100 mg/kg [1]: 90.8% | inhibition at 100 mg/kg [3]: 61.6%

O=C(c1ccccc1Cl)N1CCc2ccsc2C1=O [Derivative n°10, 6-o.Chlorobenzoyl-7-oxo-4,5,6,7-tetrahydro-thieno[2,3-c]pyridine]
inhibition at 100 mg/kg [1]: 92.2% | inhibition at 100 mg/kg [3]: 60.9%

O=C1NCC(c2ccccc2)c2ccsc21 (stereo not shown) [Derivative n°18, 4-Phenyl-7-oxo-4,5,6,7-tetrahydro-thieno[2,3-c]pyridine]
inhibition at 100 mg/kg [1]: 91.4% | inhibition at 100 mg/kg [3]: 60.6%

N#Cc1ccccc1CN1CCc2sccc2C1=O [Derivative n°8, 4-Oxo-5-o.cyanobenzyl-4,5,6,7-tetrahydro-thieno[3,2-c]pyridine]
inhibition at 100 mg/kg [1]: 91% | inhibition at 100 mg/kg [3]: 60.8%

O=C(OCc1ccccc1)C1Cc2sccc2C(=O)N1Cc1ccccc1 (stereo not shown) [Derivative n°13, 4-Oxo-6-benzyloxycarbonyl-5-benzyl-4,5,6,7-tetrahydro-thieno[3,2-c]pyridine]
inhibition at 100 mg/kg [1]: 91.9% | inhibition at 100 mg/kg [3]: 63.4%

COc1cc(CN2C(=O)c3ccsc3CC2C(=O)O)cc(OC)c1OC (stereo not shown) [Derivative n°16, 4-Oxo-6-carboxy-5-(3,4,5-trimethoxy-benzyl)-4,5,6,7-tetrahydro-thieno[3,2-c]pyridine]
inhibition at 100 mg/kg [1]: 90.5% | inhibition at 100 mg/kg [3]: 62.4%
